Three compounds from paper PMC10661964 (Current Drug Metabolism, 2023) can be followed below.

Where two headings read alike, the source gives them in different places. Bounds are passed on as bounds.

The subject of data set [1] is human CYP enzymes (all isoforms tested). As to the kind of experiment: CYP inhibition, all isoforms tested (summary). It is filed as in vitro ADME. The note with it: reversible and irreversible. The source says:
(§1) The inhibition of cytochrome P450 (CYP) isoforms and a range of cellular transporters (except multidrug and toxin extrusion [MATE] proteins), as well as the induction of CYP isoforms were investigated using previously described methods.

For another data set, the target named is T1, MATE2K (Homo sapiens, UniProt Q86VL8).
T1 construct: expressed in transfected cells; host or cells: HEK293, stably transfected
Briefly: MATE2K transport assay in overexpressing HEK293 cells. The settings on record: probe substrate metformin 90 µM. Format: in vitro ADME. The procedure:
as §1
(§2) Supplementary Material Current Drug Metabolism, 2023, Vol. 24, No. 8 iii […]
(§3) -, not determined; BCRP, breast cancer resistance protein; P-gp, P-glycoprotein; MATE, multidrug and toxin extrusion. aThe highest test concentration of 20 µM was not valid in this assay for technical reasons.
(§4) OAT, organic anion transporter; OATP, organic anion transporting polypeptide; OCT, organic cation transporters.
(§5) After thawing from frozen storage, aliquots of approximately 3 x 10^6 cells of human embryonic kidney (HEK293) cell line stable overex-pressing MATE1 or MATE2K were transferred to cell culture dishes containing 10 mL of DMEM-medium (supplemented with 10% FBS, 1% penicillin [10.000 U/mL]/streptomycin [10 mg/mL] and hygromycin B [150 µg/mL]) at 37°C. Transporter-transfected and vector-transfected HEK cells were grown on cell culture dishes at 37°C in a humidified 5% CO 2 atmosphere. All cell lines were confirmed free from mycoplasma by routine testing with conventional PCR. Cell cultures were split when they had grown to confluency. For passaging, cells were washed with PBS, exposed to trypsin-EDTA for 5 min at room temperature, collected by centrifugation, resuspended in culture medium and […]
(§6) MATE1 and MATE2K Transport Assays
(§7) Transporter-transfected and vector-transfected cells were prepared for use in uptake assays by harvesting and plating into 24-well-plates pre-coated with poly-D-lysine hydrobromide at a density of 2 x 10^5 cells/well and then cultured for 3 days in DMEM growth medium (high glucose, 10% FBS, 1% penicillin/streptomycin). For uptake assays, the growth medium was aspirated and each plate well was rinsed twice with HBSS supplemented with 20 mM HEPES, pH 7.4. The intracellular environment was acidified by preincubation in 30 mM NH4Cl in buffer pH 7.4 at 37°C for 30 min. […]

Data set [2] can be described thus: Quantification of nifurtimox and metabolites in rat plasma after a single high dose (200 mg/kg). Format: in vivo, Wistar rats. The note with it: for AUC(0-t) / AUC / Cmax / Tmax / half-life: Wistar, rat, plasma, po, 200 mg/kg; for ratio of rat:human AUC(0-24): rat 200 mg/kg oral vs human 120 mg oral. The procedure: Blood cells and plasma were then separated by centrifugation, and the plasma was stored at ≤-15°C until required. For analysis, plasma samples were thawed at room temperature and homogenized by vortex mixing. Plasma samples were pooled separately for male and female rats by combining 25 µL from each of the 4 animals for each timepoint. […] To each pooled plasma (100 µL), calibration, or control sample, 300 µL of an internal standard solution containing [^2H8]-nifurtimox (500 ng/mL) and [^2H3]-M-6 (2500 ng/mL) in acetonitrile + 0.5% formic acid in water (v/v) was added and mixed thoroughly. All samples were then centrifuged (20,000 g, 5 min) to precipitate the protein. The supernatant was analyzed using a 1290 Infinity LC system equipped with a diode array detector and an Orbitrap Q-Exactive Plus HRMS (Thermo Fisher Scientific, Bremen, Germany) with a heated electrospray ionization source. […] The mobile phase gradient was: 0 min, 0% B; 2.5 min, 0% B; 3 min, 20% B; 8 min, 45% B; 9 min, 90% B; 10.1 min, 90% B; 12 min, 0% B; 13 min, 0% B. The following HRMS parameters were used: mass range, 120-200 Da (0-2.5 min) and 230-600 Da (2.5-13 min) in full scan mode; resolution, 280,000; ion source voltage, 3500 V; capillary temperature, 300°C; source temperature, 60°C.
The calibration was based on the relative peak area as a function of concentration obtained by linear regression. […] Thus, all concentrations in μg/mL were back-calculated to nmol/mL. The PK parameters for each analyte were calculated using ToxKin software, as described above.

A further data set concerns the target T2, MATE1 (Homo sapiens, UniProt Q96FL8).
T2 construct: expressed in transfected cells; host or cells: HEK293, stably transfected
T2 sequence (Q96FL8 1-570): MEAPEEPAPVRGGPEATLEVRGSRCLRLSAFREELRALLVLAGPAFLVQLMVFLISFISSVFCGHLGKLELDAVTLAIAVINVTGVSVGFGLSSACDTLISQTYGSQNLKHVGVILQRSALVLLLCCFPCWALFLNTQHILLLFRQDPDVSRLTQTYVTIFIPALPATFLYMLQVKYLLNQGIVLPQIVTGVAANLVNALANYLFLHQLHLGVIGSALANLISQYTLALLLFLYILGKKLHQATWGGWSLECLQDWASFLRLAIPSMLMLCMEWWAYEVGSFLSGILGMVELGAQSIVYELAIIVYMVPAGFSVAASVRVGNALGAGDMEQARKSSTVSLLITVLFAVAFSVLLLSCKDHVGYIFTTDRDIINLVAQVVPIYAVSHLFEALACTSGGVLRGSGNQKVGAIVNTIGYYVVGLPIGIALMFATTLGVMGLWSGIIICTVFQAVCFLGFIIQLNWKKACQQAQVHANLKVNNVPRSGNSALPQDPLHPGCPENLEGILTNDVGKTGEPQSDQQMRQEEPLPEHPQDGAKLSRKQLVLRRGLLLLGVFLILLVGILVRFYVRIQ
As to the kind of experiment: MATE1 transport assay in overexpressing HEK293 cells. The note with it: probe substrate metformin 20 µM. Format: in vitro ADME. The procedure: as §1, §2, §3, §4, §5, §6, §7

A further data set has as its system human CYP enzymes. Briefly: CYP induction, all isoforms tested (summary). Format: in vitro ADME.
Source text: as §1

[3] abbreviates: female, read-out: AUC(0–24), female animals.
The mark [4] stands for this setting: female, read-out: AUC, female animals.
[5] abbreviates: female, read-out: Cmax, female animals.
The mark [6] stands for this setting: female, read-out: tmax, female animals.
[7] abbreviates: female, read-out: t½, female animals (converted).
Setting [8] is: male, read-out: AUC(0–24), male animals.
Where [9] appears, read: male, read-out: AUC, male animals.
[10] abbreviates: male, read-out: Cmax, male animals.
Where [11] appears, read: male, read-out: tmax, male animals.
Setting [12] is: male, read-out: t½, male animals (converted).

T1 sequence (Q86VL8 1-566 isoform Q86VL8-3): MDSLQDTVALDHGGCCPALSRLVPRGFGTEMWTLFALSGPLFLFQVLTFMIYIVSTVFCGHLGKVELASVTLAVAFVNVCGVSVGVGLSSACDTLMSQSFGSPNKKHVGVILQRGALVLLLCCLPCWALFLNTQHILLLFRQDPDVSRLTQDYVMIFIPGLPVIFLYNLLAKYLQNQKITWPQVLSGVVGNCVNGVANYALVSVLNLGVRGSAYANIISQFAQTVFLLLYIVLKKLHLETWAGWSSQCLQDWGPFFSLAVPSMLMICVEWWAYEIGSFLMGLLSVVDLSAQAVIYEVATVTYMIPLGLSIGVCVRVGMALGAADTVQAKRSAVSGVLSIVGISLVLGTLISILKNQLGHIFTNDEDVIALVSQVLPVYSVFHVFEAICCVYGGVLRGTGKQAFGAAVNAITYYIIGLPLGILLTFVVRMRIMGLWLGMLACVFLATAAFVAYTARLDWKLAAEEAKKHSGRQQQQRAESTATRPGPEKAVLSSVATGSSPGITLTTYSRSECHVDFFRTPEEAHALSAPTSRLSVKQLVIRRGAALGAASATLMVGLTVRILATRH

Turning to `CC1CS(=O)(=O)CCN1n1cc(SCC(N)C(=O)O)ccc1=O` (centres unmarked) [M-4], the IC50 in data set [1] was more than 20 µM; against MATE2K it was more than 5 µM; at MATE1 it was more than 5 µM. Also, the AUC(0-t) in data set [2] (setting [3]) came out at 4.84 µM·h; in data set [2] (setting [8]), 4.78 µM·h. For the same compound, the AUC came out at 7.41 µM·h in data set [2] (setting [4]) and 9.77 µM·h in data set [2] (setting [9]). Further, the Cmax in data set [2] (setting [5]) amounted to 0.568 µM; in data set [2] (setting [10]), 0.338 µM. Further, the values for the Tmax in data set [2] (setting [6]) and in data set [2] (setting [11]) were 3 h and 2 h, respectively. The half-life in data set [2] (setting [7]) is 18.6 h; in data set [2] (setting [12]) it was 18.3 h. Moreover, the “ratio of rat:human AUC(0-24)” value in data set [2] was 2.0-2.1 fold. Moreover, in the data set on human CYP enzymes, the “concentration up to which induction of CYP mRNA or activity was absent” value (shortened to “concentration up to which induction”) is not above 80 µg/mL.
As for `CC1CS(=O)(=O)CCN1N` (centres unmarked) [M-6], the IC50 in data set [1] was more than 100 µM; against MATE2K it was more than 30 µM; against MATE1, more than 30 µM. The values for the AUC(0-t) in data set [2] (setting [3]) and in data set [2] (setting [8]) were 65.8 µM·h and 78.4 µM·h, respectively. Besides, the AUC stood at 96.1 µM·h in data set [2] (setting [4]) and 148 µM·h in data set [2] (setting [9]). The results for the Cmax in data set [2] (setting [5]) and in data set [2] (setting [10]) were 3.92 µM and 3.65 µM, respectively. Further, the Tmax in data set [2] (setting [6]) was 3 h; in data set [2] (setting [11]), 24 h. Also, the results for the half-life in data set [2] (setting [7]) and in data set [2] (setting [12]) were 13.5 h and 10.6 h, respectively. Also, in data set [2], the “ratio of rat:human AUC(0-24)” value was 2.4-2.8 fold. Besides, the “concentration up to which induction” value in the data set on human CYP enzymes is not above 90 µg/mL.
Take `CC1CS(=O)(=O)CCN1/N=C/c1ccc([N+](=O)[O-])o1` (centres unmarked) [Nifurtimox, (E)-N-(3-methyl-1,1-dioxo-1,4-thiazinan-4-yl)-1-(5-nitrofuran-2-yl) methanimine, reference compound]: the concentration for half-maximal inhibition (IC50) was more than 50 µM in data set [1], more than 20 µM against MATE2K and more than 20 µM on MATE1. Further, the AUC(0-t) amounted to 117 µM·h in data set [2] (setting [3]) and 138 µM·h in data set [2] (setting [8]). The AUC in data set [2] (setting [4]) came out at 121 µM·h; in data set [2] (setting [9]), 184 µM·h. Further, the Cmax is 18.3 µM in data set [2] (setting [5]) and 10.1 µM in data set [2] (setting [10]). In addition, the Tmax in data set [2] (setting [6]) was 1 h; in data set [2] (setting [11]), 2 h. For the same compound, the half-life in data set [2] (setting [7]) and in data set [2] (setting [12]) was 5 h throughout. Besides, the “concentration up to which induction” value in the data set with human CYP enzymes is on record as “up to 30 mg/L”.

As a reminder, the IC50 is the concentration that gives 50% inhibition. A high value points to weaker potency in that assay. In general, AUC refers to concentration integrated over time. A word on the Cmax: it is the highest concentration seen after dosing. As a reminder, the Tmax is the time at which the peak concentration occurs.
